In patent US20240366555A1, “SELECTIVE MTORC2 INHIBITOR AND USES THEREOF” (ALIAD BIOPHARMA, priority 2021, published 2024):

How the values were obtained:
mTORC2 = mTORC2 (Homo sapiens, UniProt P42345); experiment: In vitro mTORC2 kinase assay (GST-Akt Ser473 phosphorylation, immunoblot); assay type: biochemical; set-up: mTORC was isolated by co-immunoprecipitation using Flag antibody; made in house; host or cells: HEK 293T transfected with Flag-mLST8; settings: for reduction of GST-Akt Ser473 phosphorylation by mTORC2: FIG. 6a
Experimental: After introducing Flag-mLST8 into a human cell line 293T, mTORC was isolated by co-immunoprecipitation using Flag antibody. In the in vitro mTORC2 kinase assay, the activity of the isolated mTORC2 was evaluated by measuring phosphorylation of GST-Akt Ser473, which is a selective substrate of mTORC2 by immunoblot analysis. In the control group in which Flag-mLST8 was not introduced, GST-Akt Ser473 phosphorylation was almost not measured. […] Therefore, it was judged that GST-Akt Ser473 phosphorylation measured in the in vitro mTORC2 kinase assay was generated by mTORC2. In order to evaluate the inhibitory effect of norathyriol and athyriol on mTORC2 activity, norathyriol or athyriol was pretreated for 15 minutes, and then in vitro mTORC2 kinase assay was carried out.
More specifically, the HEK 293T cells were cultured in a DMEM culture medium in which 10% heat inactivated FBS+1× Glutamax was added. 8×10^5 HEK 293T cells were seeded in a 100 mm culture dish, and then they were cultured for 1 day. After mixing 42 μl Lipofectamine, 21 μl plus reagent, and 21 μg Flag-mLST8 plasmid DNA to 1 ml OPTI-MEM, it was shaken at a room temperature for 25 minutes to prepare a transfection DNA mixture. The transfection DNA mixture was slowly treated on the cells drop by drop, and after culturing for 5 hours, the culture medium was replaced with a new culture medium. After additional culturing for 48 hours, the cells were […] with CHAPS buffer (50 mM HEPES (pH7.4), 100 mM NaCl, 2 mM EDTA, 0.3% CHAPS, 10 mM sodium pyrophosphate, 10 mM sodium β-glycerophosphate, 1 mM PMSF, 1 μg/ml leupeptin, 1 μg/ml pepstatin A, 10 nM aprotinin, 1 mM Na3VO4, 10 nM calyculin A), and centrifuged at 4° C. at 13,000 rpm for 10 minutes to obtain the supernatant and acquire cell lysate. The protein concentration of the cell lysate was determined with BCA protein assay kit (Thermo Fisher Scientific). After adding anti-Flag M2 affinity gel (50% slurry, Sigma) of 30 μl to the cell lysate of 1 mg, it was shaken at 4° C. for 3 hours. After that, affinity gel was washed with CHAPS buffer 3 times and kinase buffer (50 mM HEPES (pH7.5), 2 mM DTT, 10 mM MnCl2, 10 mM MgCl2) for washing once. After adding kinase buffer [-substrate-ATP] […] After that, kinase buffer (50 mM HEPES (pH7.5), 2 mM DTT, 10 mM MgCl2, 10 mM MnCl2, 1 mM ATP, 500 ng GST-AKT, 10 nM calyculin A) of 10 μl was added and shaken at 30° C. for 45 minutes to progress a kinase reaction. […] Ser473 phosphorylation of GST-AKT, which is a substrate of mTORC2, was measured by performing immunoblot analysis using AKT antibody (#4691, Cell signaling) and phospho Ser473 AKT antibody (#4060, Cell signalig). In order to measure the mTORC2 activity inhibitory effect by the compound, both the kinase buffer [-substrate-ATP] and the kinase buffer included the compound.

Pten KO mice [1] = experiment: Elevated plus maze test in Pten KO mice; assay type: in vivo; settings: Pten KO mice administered athyriol; FIG. 2
Experimental: (§1) As Pten KO mice, Ptenf/f_cre/cre KO mice or Ptenf/f_cre/++ Het mice (KD) were obtained by mating Pten floxed/floxed mice and CAMKII-cre mice. DMSO or athyriol was intraperitoneally injected at 5 or 10 mg/kg for 2 weeks from the age of mice of 6 weeks, and a behavioral test was performed in 7 days after administration. Pten floxed/floxed mice were used as littermates of the same age as a normal control group.
In order to confirm whether emotional instability was improved, when athyriol was administered to an autism spectrum disorder animal model, Pten KO mice, an elevated plus maze test was performed. An anxiety disorder animal model behavioral test was evaluated as a tendency to avoid an open arm exposed to the elevated-plus maze and stay in a closed arm. Analysis was conducted with a video tracking system (Ethovision EPM program, Noldus information technology, Wageningen, Netherlands). In the elevated plus maze test measuring emotional instability disorder, when the emotional anxiety increases, the time spent in the closed arm increases compared to the time spent in the open arm.

Pten KO mice [2] = experiment: Social-open field test in Pten KO mice; assay type: in vivo; settings: 5 or 10 mg/kg, FIG. 3
Experimental: as §1
When athyriol was administered to the Pten KO mice, in order to confirm the sociability disorder was improved, a social-open field test was performed. After adapting the Pten-KO mice to the record environment for 30 minutes, they were adapted to the open filed test space made of black acrylic for 10 minutes. An unfamiliar mouse was placed in a test space in a transparent acrylic cage allowing minimal contact with the sense of smell. The movement of the test mouse was recorded for 10 minutes and analyzed with ethovision 3.1 program. Then, sociability was measured by setting 10 cm around the cylinder where the unfamiliar mouse was placed.
The social-open field test is measuring sociability as the time spent in a social interaction zone in contact with other mice in an open space, and measures the time of actually contacting also in the contact space, or sniffling toward other mice. […]

normal mice = experiment: Y-type maze test in normal mice; assay type: in vivo; settings: 5 mg/kg intraperitoneally, FIG. 14a
Experimental: A Y-maze was performed in a Y-shaped structure maze made of black acrylic material in which an angle of each arm was 120°, and a light and a cam were installed on the ceiling, and it was checked that white mice entered each arm while the surroundings were covered with a curtain. Through this, short-term memory was analyzed. In order to adapt mice to the environment, they were acclimated to the experimental space for 30 minutes. The mice were placed at one end of the maze and allowed to move freely for 12 minutes. Accuracy was measured by dividing time into 8 minutes, 10 minutes and 12 minutes. When the four paws of the mice entered the entrance, it was considered as completely entered. The percentage of accuracy was calculated as the number of times which a mouse entered each maze without repetition. […]
In order to verify this possibility, the efficacy of athyriol on memory ability and sociability of normal animals was investigated. A vehicle (30% DMSO) or athyriol was intraperitoneally injected at a dose of 5 mg/kg into normal mice (n=10), and from the 7th day after administration, the memory ability was evaluated by the same method as the Y-type maze test of Experimental example 1-2, and the sociability was evaluated by the same method as the 3 chamber test of Experimental example 1-6.

reduction of GST-Akt Ser473 phosphorylation by mTORC2 (mTORC2; 5 μM) [%] | reduction of GST-Akt Ser473 phosphorylation by mTORC2 (mTORC2; 40 μM) [%] | inhibition at 40 µM (mTORC2; 40 μM, FIG. 6b) [%] | IC50 (mTORC2; in vitro mTORC2 kinase assay) [µM] | inhibition at 20 µM (mTORC2; 20 μM, FIG. 6b) [%] | Structure (SMILES) | reduction of time spent in the closed arm (Pten KO mice [1]) [%] | time in the center zone (Pten KO mice [1]) | increase of direct counterpart searching time (Pten KO mice [2]) [%] | improvement of memory ability in Y-type maze test compared to vehicle control (normal mice) [%]
≥ 20 | 50 | 46 | 40 |  | O=c1c2cc(O)c(O)cc2oc2cc(O)cc(O)c12 [norathyriol, 1,3,6,7-tetrahydroxy-9H-xanthen-9-one] |  |  |  | 
 |  | 67 |  | 59 | COc1cc(O)c2c(=O)c3cc(O)c(O)cc3oc2c1 [athyriol, 1,6,7-Trihydroxy-3-methoxy-9H-xanthen-9-on] | 15 | recovered to the normal control group level | 6 | ≥ 25
